According to PMC10819651 (Molecules, 2024):
Entries after “also recorded” stand apart in the source; their conditions may differ. Like-named read-outs stand apart in the source and are kept apart here.

Columns and labels:
XO = tested on: XO; parameters: method as in PMID 16450295; conditions: cited from earlier work
MAO-A = tested on: MAO-A; parameters: method as in PMID 24140951; conditions: control of MAO-A inhibition; cited from earlier work
[1] = biological target: T1, Human monoamine oxidase B (Homo sapiens, UniProt P27338); test: Kinetic analysis of MAO-B inhibition (KM, Vmax, apparent Ki); assay type: biochemical; conditions: for Note: type of inhibition approached (MAO-B): for mixed inhibitors; for Inhibition Type (MAO-B): kynuramine 25–150 µM, two fixed inhibitor concentrations; for Ki: apparent Ki, mean ± SE (n)
T1 construct: purchased Sigma-Aldrich (Milan, Italy)
T1 sequence (P27338 1-520): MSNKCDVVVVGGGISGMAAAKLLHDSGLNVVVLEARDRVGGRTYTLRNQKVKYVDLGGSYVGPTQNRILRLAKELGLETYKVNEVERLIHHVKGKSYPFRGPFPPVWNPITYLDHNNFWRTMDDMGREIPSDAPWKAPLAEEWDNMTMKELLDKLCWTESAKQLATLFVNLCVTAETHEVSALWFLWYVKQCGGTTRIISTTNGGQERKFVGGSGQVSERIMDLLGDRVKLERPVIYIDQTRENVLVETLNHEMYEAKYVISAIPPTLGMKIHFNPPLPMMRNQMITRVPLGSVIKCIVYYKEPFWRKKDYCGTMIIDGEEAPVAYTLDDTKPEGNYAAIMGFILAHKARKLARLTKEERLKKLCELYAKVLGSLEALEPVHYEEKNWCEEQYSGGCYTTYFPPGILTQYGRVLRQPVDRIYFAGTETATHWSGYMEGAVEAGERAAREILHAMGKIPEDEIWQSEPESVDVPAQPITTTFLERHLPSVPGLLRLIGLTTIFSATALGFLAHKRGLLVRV
Experimental: (§1) Monoamine oxidase activity was assayed by the fluorimetric method, as previously reported. This method, based on the monoamine oxidase oxidation of its non-selective substrate kynuramine, led to the production of […], which becomes fluorescent in alkaline conditions. In steady-state measurements of MAO activity, the reaction mixture (250 µL), prepared in a 50 mM potassium phosphate buffer, pH 7.1 (buffer A), contained 40 μM kynuramine in the absence or presence of the indicated concentration of the inhibitor. The DMSO concentration carried over by the inhibitor was 0.5% (v/v), and an identical concentration of DMSO was used in the absence of the inhibitor. The reaction started with the addition of 3.75 μg monoamine oxidase A or B and lasted 20 min. The reaction was stopped by adding 150 μL of 2 M NaOH and, after 10 min of incubation at room temperature, 240 μL of water. After centrifugation (10 min at 15,000 rpm), the fluorescence signal was measured on 500 μL of supernatant using a Cary Eclipse Spectrofluorimeter (Agilent Technologies, Milan, Italy) at room temperature (20–25 °C). Excitation and emission wavelengths of 315 and 380 nm, respectively, were employed; slits were set to 10 nm for both the excitation and emission beams.
(§2) The kinetic parameters KM and Vmax for MAO and XO substrates were obtained through kinetic measurements of these activities performed at different substrate concentrations, either in the absence or in the presence of two fixed concentrations of the various inhibitors. […] Each assay was realized as reported above, and the values of the initial velocity (vi) of the reaction were evaluated under the various experimental conditions. The data of vi were nonlinearly fitted according to the Michaelis–Menten equation or analyzed by the Lineweaver–Burk equation in order to derive the kinetic parameters in the absence (KM and Vmax) or in the presence (K’M and V’max) of the inhibitor.
(§3) The inhibition power of the various compounds and their inhibition mechanisms were evaluated. […] However, an apparent inhibition constant (K’i) was calculated at each inhibitor concentration using the equations hereafter reported, depending on the type of inhibition tentatively approached from the experimental data:K’i = V’max × [I]/(Vmax − V’max)(1) K’i = KM × [I]/(K’M − KM)(2) K’i = K’M × [I]/(KM − K’M)(3)
(§4) The K’i values obtained at different inhibitor concentrations were then averaged to obtain a unique value of apparent Ki for each compound.

[2] = biological target: T2, Human monoamine oxidase A (Homo sapiens, UniProt P21397); test: Kinetic analysis of MAO-A inhibition (KM, Vmax, apparent Ki); assay type: biochemical; conditions: for Note: type of inhibition approached (MAO-A): for mixed inhibitors; for Inhibition Type (MAO-A): kynuramine 25–150 µM, two fixed inhibitor concentrations; for Ki: apparent Ki, mean ± SE (n)
T2 construct: purchased Sigma-Aldrich (Milan, Italy)
T2 sequence (P21397 1-527): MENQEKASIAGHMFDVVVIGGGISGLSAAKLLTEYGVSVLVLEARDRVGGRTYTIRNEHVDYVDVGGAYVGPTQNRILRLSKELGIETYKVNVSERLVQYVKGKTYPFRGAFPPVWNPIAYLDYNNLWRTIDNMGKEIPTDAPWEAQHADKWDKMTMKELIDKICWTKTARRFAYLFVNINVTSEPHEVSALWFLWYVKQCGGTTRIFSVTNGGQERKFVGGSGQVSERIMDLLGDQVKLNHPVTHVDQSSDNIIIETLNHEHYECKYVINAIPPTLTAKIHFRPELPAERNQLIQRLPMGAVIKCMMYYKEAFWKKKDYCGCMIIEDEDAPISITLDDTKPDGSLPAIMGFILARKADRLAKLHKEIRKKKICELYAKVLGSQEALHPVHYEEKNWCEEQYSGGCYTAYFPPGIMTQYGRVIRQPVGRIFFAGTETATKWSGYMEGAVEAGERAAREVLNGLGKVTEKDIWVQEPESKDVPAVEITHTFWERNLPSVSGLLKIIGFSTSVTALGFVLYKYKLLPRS
Experimental: as §1, §2, §3, §4

[3] = biological target: T2, Human monoamine oxidase A; test: Steady-state MAO-A activity, fluorimetric kynuramine assay; assay type: biochemical; conditions: 40 μM kynuramine, 20 min, pH 7.1; mean ± SD (n); from semilogarithmic plot
Experimental: as §1, with “The reaction started with the addition of 3.75 μg monoamine oxidase A or B and lasted 20 min.” left out, “°C).” for “°C). Excitation and emission wavelengths of 315 and 380 nm, respectively, were employed; slits were set to 10 nm for both the excitation and emission beams.”

[4] = biological target: T3, bovine milk xanthine oxidase (Bos taurus, UniProt P80457); test: Steady-state xanthine oxidase activity, spectrophotometric assay; assay type: biochemical; conditions: for IC50: read-out: IC50 XO inhibition; for Inhibition of XO activity (in words): steady-state, concentration series
T3 construct: bovine milk xanthine oxidase; purchased Sigma-Aldrich (Milan, Italy); host or cells: bovine milk
T3 sequence (P80457 whole entry): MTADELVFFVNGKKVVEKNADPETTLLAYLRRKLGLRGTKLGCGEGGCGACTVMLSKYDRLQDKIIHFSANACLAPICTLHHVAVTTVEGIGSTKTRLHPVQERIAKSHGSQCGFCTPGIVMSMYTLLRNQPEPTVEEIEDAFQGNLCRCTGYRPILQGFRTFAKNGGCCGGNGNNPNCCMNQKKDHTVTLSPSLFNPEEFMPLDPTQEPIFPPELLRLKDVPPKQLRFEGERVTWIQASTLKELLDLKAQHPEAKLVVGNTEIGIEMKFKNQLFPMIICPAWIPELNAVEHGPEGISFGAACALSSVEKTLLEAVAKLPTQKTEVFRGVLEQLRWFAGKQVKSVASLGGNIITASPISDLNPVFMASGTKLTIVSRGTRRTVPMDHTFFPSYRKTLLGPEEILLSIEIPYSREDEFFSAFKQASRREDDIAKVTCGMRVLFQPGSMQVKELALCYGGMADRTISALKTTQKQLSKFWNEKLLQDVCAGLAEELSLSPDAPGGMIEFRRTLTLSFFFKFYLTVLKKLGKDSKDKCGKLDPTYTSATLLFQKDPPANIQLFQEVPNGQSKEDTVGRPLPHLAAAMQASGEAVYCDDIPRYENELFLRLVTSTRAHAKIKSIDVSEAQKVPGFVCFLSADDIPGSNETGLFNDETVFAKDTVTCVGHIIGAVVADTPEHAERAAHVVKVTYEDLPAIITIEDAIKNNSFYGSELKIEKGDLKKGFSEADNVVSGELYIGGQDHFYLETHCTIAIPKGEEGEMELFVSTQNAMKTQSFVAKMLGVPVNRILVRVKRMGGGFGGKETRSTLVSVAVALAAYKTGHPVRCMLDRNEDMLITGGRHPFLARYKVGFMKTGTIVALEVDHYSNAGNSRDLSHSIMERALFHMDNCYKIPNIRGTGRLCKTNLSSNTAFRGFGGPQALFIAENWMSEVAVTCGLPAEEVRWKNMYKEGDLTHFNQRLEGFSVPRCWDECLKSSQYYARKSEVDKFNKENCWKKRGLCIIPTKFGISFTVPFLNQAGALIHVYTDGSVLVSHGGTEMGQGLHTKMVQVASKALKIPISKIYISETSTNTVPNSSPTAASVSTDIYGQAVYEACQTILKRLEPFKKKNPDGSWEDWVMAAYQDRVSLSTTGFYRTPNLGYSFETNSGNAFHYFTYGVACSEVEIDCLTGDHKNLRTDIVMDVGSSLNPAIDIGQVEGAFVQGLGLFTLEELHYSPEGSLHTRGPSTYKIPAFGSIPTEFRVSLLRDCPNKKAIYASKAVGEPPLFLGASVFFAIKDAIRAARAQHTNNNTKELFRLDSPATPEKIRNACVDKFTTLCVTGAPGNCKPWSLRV
Experimental: Xanthine oxidase activity was assayed through a spectrophotometric method, essentially as previously reported. […] The DMSO concentration carried over by the inhibitor was 1% (v/v), and an identical concentration of DMSO was used in the absence of the inhibitor. The reaction started with the addition of XO and was followed kinetically for up to 30 s. The initial rate of uric acid formation was expressed as ΔE/min. The effect of each inhibitor in the XO assay was evaluated, and the data were treated as previously indicated for the MAO assay, including the extrapolation of the IC50 values.

[5] = biological target: T1, Human monoamine oxidase B; test: Steady-state MAO-B activity, fluorimetric kynuramine assay; assay type: biochemical; conditions: 40 μM kynuramine, 20 min, pH 7.1; mean ± SD (n); from semilogarithmic plot
Experimental: as §1

[6] = biological target: T3, bovine milk xanthine oxidase; test: Kinetic analysis of xanthine oxidase inhibition; assay type: biochemical
Experimental: Xanthine oxidase activity was assayed through a spectrophotometric method, essentially as previously reported. In particular, the oxidation of xanthine to uric acid catalyzed by XO was monitored with a Cary 100 UV-Vis Spectrophotometer (Agilent Technologies, Milan, Italy) at 25 °C, thanks to the increase in absorbance at 295 nm due to uric acid formation. In steady-state measurements of XO activity, the assay was carried out in a 500-μL final volume reaction mixture containing 100 mM phosphate buffer, pH 7.8 plus 0.1 mM EDTA (buffer B), 75 μM xanthine, and different concentrations of the various inhibitors. The DMSO concentration carried over by the inhibitor was 1% (v/v), and an identical concentration of DMSO was used in the absence of the inhibitor. The reaction started with the addition of XO and was followed kinetically for up to 30 s. The initial rate of uric acid formation was expressed as ΔE/min. The effect of each inhibitor in the XO assay was evaluated, and the data were treated as previously indicated for the MAO assay, including the extrapolation of the IC50 values.
as §2
The inhibition power of the various compounds and their inhibition mechanisms were evaluated. […]

[7] = read-out: Ki, Calculated from KM Increase (MAO-B)
[8] = read-out: Ki, Calculated from KM Increase (MAO-A)
[9] = 75 μM xanthine, pH 7.8, 25 °C, mean ± SE (n), extrapolated from semilogarithmic plot
[10] = uncompetitive, read-out: Ki, average value from Vmax or KM decrease (MAO-B)

In the case of `Oc1ncnc2[nH]ncc12` [Allopurinol, allopurinol], the “Inhibition Type (XO)” value (XO) is given as “Competitive [53]” and the Ki (XO) is given as 1.8 µM.
For `C#CCN(C)CCCOc1ccc(Cl)cc1Cl` [Clorgyline, clorgyline], the “Inhibition Type (MAO-A)” value (MAO-A) is given as “Inactivator [52]”.
For `COc1cc2c(cc1OC)C(=O)C(CC1CCN(Cc3ccccc3)CC1)C2` (stereo not drawn) [Donepezil, donepezil, reference compound], the “Note: type of inhibition approached (MAO-B)” value [1] was “approaching competitive”, the “Inhibition Type (MAO-B)” value [1] was “mixed” and the “Note: type of inhibition approached (MAO-A)” value [2] was “approaching noncompetitive”. For the same compound, the “Inhibition Type (MAO-A)” value [2] was “mixed”.
For `O=C(OCCc1ccc(O)c(O)c1)C1CCN(Cc2ccccc2)CC1` [HT1, 3,4-dihydroxyphenetyl 1-benzylpiperidine-4-carboxylate], the IC50 [3] was 54.1 ± 6.9 µM, the Ki [1, 7] was 163 ± 28 µM and the “Inhibition Type (MAO-B)” value [1] was “competitive”. For the same compound, the Ki [2, 8] was 39.7 ± 14.3 µM, the “Note: type of inhibition approached (MAO-A)” value [2] was “approaching competitive” and the “Inhibition Type (MAO-A)” value [2] was “mixed”. It also gave an IC50 [4, 9] of 454 ± 22 µM and an IC50 [5] of 125 ± 28 µM.
With `CC(=O)Oc1ccc(CCOC(=O)C2CCN(Cc3ccccc3)CC2)cc1OC(C)=O` [HT1a] the IC50 [3] was 50.8 ± 11 µM, the Ki [1, 7] was 37.9 ± 13.1 µM and the “Note: type of inhibition approached (MAO-B)” value [1] was “approaching competitive”. For the same compound, the “Inhibition Type (MAO-B)” value [1] was “mixed”, the Ki [2, 8] was 36.5 ± 13.2 µM and the “Note: type of inhibition approached (MAO-A)” value [2] was “approaching competitive”. For the same compound, the “Inhibition Type (MAO-A)” value [2] was “mixed”, the “IC50 XO inhibition” value [4, 9] was “no inhibition” and the “Inhibition of XO activity (in words)” value [4] was “almost ineffective; also recorded: essentially no inhibition”. The IC50 [5] was 85 ± 33 µM.
In the case of `O=C(OCCc1cc(O)c(O)cc1[N+](=O)[O-])C1CCN(Cc2ccccc2)CC1` [HT2, 4,5-dihydroxy-2-nitrophenethyl 1-benzylpiperidine-4-carboxylate], the IC50 [3] is reported as 322 ± 58 µM, the “Inhibition Type (MAO-B)” value [1] is reported as “uncompetitive” and the Ki [1, 10] is reported as 186 ± 98 µM. The Ki ([2]; read-out: Ki, Calculated from Vmax Decrease (MAO-A)) was 398 ± 56 µM, the “Inhibition Type (MAO-A)” value [2] was “noncompetitive” and the “Note: type of inhibition approached (XO)” value [6] was “approaching competitive”. For the same compound, the Ki ([6]; apparent Ki, mean ± SE (n), read-out: Ki Calculated from KM Increase (XO)) was 63 ± 8 µM, the “Inhibition Type (XO)” value ([6]; xanthine 4–30 µM, 75 or 100 µM HT2) was “mixed-type” and the IC50 [4, 9] was 109 ± 20 µM. The “Inhibition of XO activity (in words)” value [4] was “clearly evident concentration-dependent inhibition” and the IC50 [5] was 184 ± 48 µM.
With `COc1cc(CCOC(=O)C2CCN(Cc3ccccc3)CC2)ccc1O` [HT3, 4-hydroxy-3-methoxyphenethyl 1-benzylpiperidine-4-carboxylate] the IC50 [3] was 23.4 ± 6.3 µM, the Ki [1, 7] was 115 ± 50 µM and the “Note: type of inhibition approached (MAO-B)” value [1] was “approaching competitive”. The “Inhibition Type (MAO-B)” value [1] was “mixed”, the Ki [2, 8] was 7.6 ± 3.7 µM and the “Note: type of inhibition approached (MAO-A)” value [2] was “approaching competitive”. The “Inhibition Type (MAO-A)” value [2] was “mixed”, the IC50 [4, 9] was 361 ± 1 µM and the IC50 [5] was 171 ± 44 µM.
With `COc1cc(CCOC(=O)C2CCN(Cc3ccccc3)CC2)ccc1OC(C)=O` [HT3a] the IC50 [3] was 44.3 ± 14.4 µM, the Ki [1, 7] was 190 ± 37 µM and the “Note: type of inhibition approached (MAO-B)” value [1] was “approaching competitive”. The “Inhibition Type (MAO-B)” value [1] was “mixed”, the “Inhibition Type (MAO-A)” value [2] was “uncompetitive” and the Ki ([2]; uncompetitive, read-out: Ki, average value from Vmax or KM decrease (MAO-A)) was 80.5 ± 30.4 µM. The IC50 [4, 9] was 282 ± 37 µM and the IC50 [5] was 174 ± 80 µM.
For `O=C(OCCc1ccc(O)cc1)C1CCN(Cc2ccccc2)CC1` [HT4, 4-hydroxyphenethyl 1-benzylpiperidine-4-carboxylate], the IC50 [3] was 14.3 ± 2.2 µM, the “Inhibition Type (MAO-B)” value [1] was “uncompetitive” and the Ki [1, 10] was 128 ± 45 µM. The Ki [2, 8] was 6.1 ± 1.6 µM, the “Note: type of inhibition approached (MAO-A)” value [2] was “approaching competitive” and the “Inhibition Type (MAO-A)” value [2] was “mixed”. The IC50 [4, 9] was 605 ± 35 µM and the IC50 [5] was 106 ± 22 µM.
For `CC(=O)Oc1ccc(CCOC(=O)C2CCN(Cc3ccccc3)CC2)cc1` [HT4a], the IC50 [3] was 57 ± 18.2 µM, the Ki [1, 7] was 20.7 ± 2.8 µM and the “Inhibition Type (MAO-B)” value [1] was “competitive”. For the same compound, the Ki [2, 8] was 15.6 ± 4.2 µM, the “Note: type of inhibition approached (MAO-A)” value [2] was “approaching competitive” and the “Inhibition Type (MAO-A)” value [2] was “mixed”. For the same compound, the IC50 [4, 9] was 438 ± 6 µM and the IC50 [5] was 86 ± 24 µM.
